Results from article PMC5065007 (Journal of the American Chemical Society, 2016).
Where no end group is shown, it is not given here.

Target: δPKC (Homo sapiens, UniProt Q05655)
Experiment: AGILE label-free binding assay, δPKC to immobilized peptide

δPKC, sequence (Q05655 whole entry): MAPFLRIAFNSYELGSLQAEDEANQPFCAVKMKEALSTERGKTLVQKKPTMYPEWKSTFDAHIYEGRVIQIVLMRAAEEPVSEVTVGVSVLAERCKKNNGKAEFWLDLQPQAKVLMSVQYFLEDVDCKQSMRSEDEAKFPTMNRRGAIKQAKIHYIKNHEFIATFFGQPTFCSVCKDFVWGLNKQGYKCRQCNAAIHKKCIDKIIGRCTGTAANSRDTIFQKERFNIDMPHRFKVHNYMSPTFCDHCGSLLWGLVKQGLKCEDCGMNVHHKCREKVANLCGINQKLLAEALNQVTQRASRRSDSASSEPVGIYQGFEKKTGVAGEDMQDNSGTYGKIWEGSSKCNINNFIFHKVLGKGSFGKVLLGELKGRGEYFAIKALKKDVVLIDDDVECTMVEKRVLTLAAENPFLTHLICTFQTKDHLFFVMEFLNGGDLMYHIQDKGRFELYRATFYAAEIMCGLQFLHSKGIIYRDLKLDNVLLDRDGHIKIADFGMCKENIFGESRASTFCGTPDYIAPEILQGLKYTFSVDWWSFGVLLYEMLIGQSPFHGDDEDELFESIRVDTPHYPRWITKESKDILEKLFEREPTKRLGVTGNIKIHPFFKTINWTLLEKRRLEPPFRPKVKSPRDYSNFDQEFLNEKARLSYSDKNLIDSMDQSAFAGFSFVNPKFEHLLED

Row | IC50 | Kd | Substance
1 | 53 nM | 53 ± 19 nM | ALSTER [ψPDK]
2 | 1250 nM | 1250 nM | ALSAER [ψPDK analog]
